Source: BindingDB's records for doi:10.1021/jm9903139 (Departement D'Ingenierie Et D'Etudes Des Proteines, 2000)
Starred links: 1 amine or outer side, 2 acyl side, 3 side chain; linkers in the order of their positions; H or OH if unused. Non-standard residues stand in square brackets, D forms with d. Residues, ends and D or L forms follow the SMILES beside them. *: point of attachment. NHCH2CHPh2 = c1ccc(C(CN*)c2ccccc2)cc1; pNA = O=[N+]([O-])c1ccc(N*)cc1; NHPhenethyl = c1ccc(CCN*)cc1; Suc = O=C(CCC(=O)[*:2])[*:1]; Orn = NCCC[C@H](N)C(=O)O

The compounds below were run against Peptidyl-prolyl cis-trans isomerase A (cyclophilin A, hCyp-18) (Homo sapiens) (UniProt P62937) (assay: 50% inhibitory concentration of competitive binding against hCyp-18 PPIase activity using uncoupled assay).
Peptidyl-prolyl cis-trans isomerase A (cyclophilin A, hCyp-18) (Homo sapiens), sequence (P62937 whole entry, looked up): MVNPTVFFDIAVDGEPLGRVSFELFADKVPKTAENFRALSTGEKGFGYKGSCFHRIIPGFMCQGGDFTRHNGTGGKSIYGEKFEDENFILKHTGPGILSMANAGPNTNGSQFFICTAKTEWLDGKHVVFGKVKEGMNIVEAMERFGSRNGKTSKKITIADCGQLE

First: CC[C@@H]1/C=C(\C)C[C@H](C)C[C@H](OC)[C@H]2O[C@@](O)(C(=O)C(=O)N3CCCC[C@H]3C(=O)O[C@H](/C(C)=C/[C@@H]3CC[C@@H](O)[C@H](OC)C3)[C@H](C)[C@@H](O)CC1=O)[C@H](C)C[C@@H]2OC
Second: CC[C@H](C)[C@H](NC(=O)[C@@H]1CCCN1C(=O)CNC(=O)[C@H](C)NC(=O)[C@H](Cc1cnc[nH]1)NC(=O)[C@@H](NC(C)=O)C(C)C)C(=O)NCCc1ccccc1 (Ac-VHAGPI-NHPhenethyl)
The IC50 of the first is 41-fold lower: 8 µM for the first, 325 µM for the second.

First: CC[C@H](C)[C@H](NC(=O)[C@@H]1CCCN1C(=O)CNC(=O)[C@H](C)NC(=O)[C@H](CCCN)NC(=O)[C@@H](NC(C)=O)C(C)C)C(=O)N[C@@H](C)C(N)=O [1-(2-{2-[2-(2-Acetylamino-3-methyl-butyrylamino)-5-amino-pentanoylamino]-propionylamino}-acetyl)-pyrrolidine-2-carboxylic acid [1-(1-carbamoyl-ethylcarbamoyl)-2-methyl-butyl]-amide] (Ac-V[Orn]AGPIA-NH2)
Second: CC[C@H](C)[C@H](NC(=O)[C@@H]1CCCN1C(=O)CNC(=O)[C@H](C)NC(=O)[C@H](Cc1cnc[nH]1)NC(=O)[C@@H](NC(C)=O)C(C)C)C(=O)NCC(c1ccccc1)c1ccccc1 (Ac-VHAGPI-NHCH2CHPh2)
The IC50 of the first is higher: greater than 10000 µM for the first, 365 µM for the second. The second is the more potent here.

`C[C@H](NC(=O)CCC(=O)O)C(=O)N[C@@H](C)C(=O)N1CCC[C@H]1C(=O)N[C@@H](Cc1ccccc1)C(=O)Nc1ccc([N+](=O)[O-])cc1` [N-[1-(1-Methyl-2-{2-[1-(4-nitro-phenylcarbamoyl)-2-phenyl-ethylcarbamoyl]-pyrrolidin-1-yl}-2-oxo-ethylcarbamoyl)-ethyl]-succinamic acid] (Suc-AAPF-pNA) gave an IC50 of 850 µM.
